The nature of the assay: potency of AGP1-GFP expression modulators in yeast, dose response, cell-based, flow cytometry, S. cerevisiae, MLPCN hits (AID 2743). The settings on record: S. cerevisiae AGP1-GFP strain, flow cytometry GFP, 3 h; at 33 µM (top of the series). (In flow cytometry, cells or beads pass a laser one at a time.)

Several values for one entry are separate records, joined by “and”; a condition that tells them apart may be missing. Identical values can stand only once. Activity calls are given as the source filed them.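 The calls were made as follows: active = fitted half-maximal concentration for change in GFP expression of 33 µM or less; inactive = the rest.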

As to `CC(C)Cn1c(=O)c(C(=O)Nc2ccncc2)c(O)c2ccccc21`, the GFP fluorescence (kMESF) is 16.1 kMESF (inactive).

Regarding `Oc1cc(-c2ccc(N3CCCCC3)nc2)cc2cccnc12`, the GFP fluorescence (kMESF) was 31.5 kMESF (inactive).

`Cc1cc(C)nc(S/C=C/C(=O)c2ccccc2)n1`: the GFP fluorescence (kMESF) was 44.8 kMESF (inactive).

On to `CCOc1ccccc1/C=c1\sc2ncnn2c1=O`, for which the GFP fluorescence (kMESF) is 39.5 kMESF (inactive).

For `Cc1cc(/C=C2/SC(=S)N(c3cccc(Cl)c3)C2=O)c(C)n1-c1cccnc1`, the GFP fluorescence (kMESF) is 46.4 kMESF (inactive).

On to `CC(=O)Oc1ccc(/C=c2\sc3ncnn3c2=O)cc1`, for which the GFP fluorescence (kMESF) was 36.7 kMESF (inactive).

`O=C(Oc1oc(-c2ccco2)nc1C=Nc1ccccc1)c1ccco1`: the GFP fluorescence (kMESF) is 43.5 kMESF (inactive).

Consider `O=[N+]([O-])c1ccc(S(=O)(=O)c2cccc(C(F)(F)F)c2)nc1`, for which the GFP fluorescence (kMESF) is 37.7 kMESF (inactive).

On to `Cc1ccccc1OCCOC(=O)c1ccc(S(=O)(=O)N2CCCC2)cc1`, for which the GFP fluorescence (kMESF) was 38.1 kMESF (inactive).

For `Cc1ccc2nc(Cl)c3nnnn3c2c1`, the GFP fluorescence (kMESF) is 33.8 kMESF (inactive).

As for `O=C(O)/C=C/C(=O)c1ccc2c(c1)CCc1ccccc1-2`, the GFP fluorescence (kMESF) was 18.9 kMESF (inactive).

On to `Cc1ccc(-c2nn(C(C)(C)C)c3ncnc(N)c23)cc1`, for which the GFP fluorescence (kMESF) was 40.2 kMESF (inactive).

In the case of `N#Cc1nccnc1S(=O)(=O)c1cccs1`, the GFP fluorescence (kMESF) is 38.7 kMESF (inactive).

Take `O=[N+]([O-])c1ccc(O)c2ncccc12`: the GFP fluorescence (kMESF) was 39.4 kMESF (inactive) and 32.2 kMESF (inactive).

Turning to `C/C(=N\NC(=O)c1cc2ccccc2cc1O)c1ccccn1`, the GFP fluorescence (kMESF) is 47.9 kMESF (inactive).

Turning to `O=C(/C=C/c1cccc([N+](=O)[O-])c1)c1ccc([N+](=O)[O-])o1`, the GFP fluorescence (kMESF) was 10.4 kMESF (inactive).

Turning to `CCN(CC)c1ccc(/C=C2\C(=O)c3ccc(C(=O)O)cc3C2=O)cc1`, the GFP fluorescence (kMESF) is 747 kMESF (inactive).

As to `CC(=O)N(C1=C(Cl)C(=O)c2ccccc2C1=O)C1CCCCC1`, the GFP fluorescence (kMESF) is -0.34 kMESF (inactive).

As for `CC(C)[C@]1(c2ccccc2)ON(c2ccccc2C(F)(F)F)C1=O`, the GFP fluorescence (kMESF) is 34.2 kMESF (inactive).

For the compound `CCCCC(=O)NC(=S)NNC(=O)CCc1ccccc1`, the GFP fluorescence (kMESF) was 28.1 kMESF (inactive).

In the case of `Cc1nn2c(-c3ccncc3)nnc2c2ccccc12`, the GFP fluorescence (kMESF) was 22.9 kMESF (inactive).

Turning to `Cc1ccccc1OCC(=O)NNC(=S)NC(=O)c1ccco1`, the GFP fluorescence (kMESF) is 43.5 kMESF (inactive).

Turning to `N/C(=N\OC(=O)c1cccc(Br)c1)c1ccccc1`, the GFP fluorescence (kMESF) is 21.7 kMESF (inactive).

As to `Cc1ccc(N=Nc2ccc(O)c3ncccc23)cc1`, the GFP fluorescence (kMESF) is 35.1 kMESF (inactive).

`O=C(Oc1oc(-c2ccco2)nc1C=Nc1ccccc1)c1ccoc1`: the GFP fluorescence (kMESF) is 44.7 kMESF (inactive).

On to `COc1cc(N=c2ssnc2Cl)c(OC)cc1Cl`, for which the GFP fluorescence (kMESF) was 27.6 kMESF (inactive) and 26.1 kMESF (inactive).

For the compound `CC(=O)[C@]1(O)Cc2c(O)c3c(c(O)c2[C@@H](O[C@H]2C[C@H](N)[C@H](O)[C@H](C)O2)C1)C(=O)c1ccccc1C3=O`, the GFP fluorescence (kMESF) is 33.4 kMESF (inactive).

For the compound `COc1ccc(CCNC2=C(Cl)C(=O)N(CCc3ccc(OC)c(OC)c3)C2=O)cc1OC`, the GFP fluorescence (kMESF) is 41.5 kMESF (inactive).

For the compound `Cc1ccc(/C=C/C(=O)c2ccccc(=O)c2O)c(C)c1`, the GFP fluorescence (kMESF) was 28.9 kMESF (inactive).

For the compound `Oc1c(Br)cc(Br)cc1C=Nc1ccc2[nH]ncc2c1`, the GFP fluorescence (kMESF) is 37.5 kMESF (inactive).

For the compound `Cc1ccc(C2=NN(S(C)(=O)=O)C(c3ccc4c(c3)OCO4)C2)cc1` (configuration not stated), the GFP fluorescence (kMESF) was 44.1 kMESF (inactive).

Turning to `O=C1C2C3C=CC(CO)(O3)C2C(=O)N1c1ccc(-c2ccccc2)cc1` (configuration not stated), the GFP fluorescence (kMESF) was 40.8 kMESF (inactive).

Turning to `O=C(c1ccccn1)c1conc1C(=O)c1ccc(Br)cc1`, the GFP fluorescence (kMESF) is 39.4 kMESF (inactive).

On to `c1ccc(-c2cccc(-c3ccccn3)n2)nc1`, for which the GFP fluorescence (kMESF) is 38.3 kMESF (inactive).

Regarding `Cc1ccccc1N=Nc1ccc(O)c2ncccc12`, the GFP fluorescence (kMESF) was 31.9 kMESF (inactive).

Consider `CC(=O)N(C(C)=O)c1ncnc2c1c(-c1ccc(Cl)cc1)nn2C(C)(C)C`, for which the GFP fluorescence (kMESF) is 36.6 kMESF (inactive).

On to `CC(C)CC(=O)NC(=S)Nc1nc(-c2ccccc2)cs1`, for which the GFP fluorescence (kMESF) was 38.8 kMESF (inactive).

As for `Oc1c(Br)cc(Br)cc1C=Nc1ccc2c(c1)OCO2`, the GFP fluorescence (kMESF) was 42.9 kMESF (inactive).

Turning to `C=CCN1C(=O)/C(=C/c2ccc(-c3ccc(F)cc3)o2)SC1=S`, the GFP fluorescence (kMESF) was 35.3 kMESF (inactive).

As for `O=C(Nc1ccc(Cl)cc1Cl)c1cccc(N2C(=O)C=CC2=O)c1`, the GFP fluorescence (kMESF) was 41.1 kMESF (inactive).

On to `O=C(/C=C/c1ccnc2ccccc12)c1cccs1`, for which the GFP fluorescence (kMESF) is 45.9 kMESF (inactive).

For the compound `N#C/C(=C\c1cc(Br)ccc1F)C(=O)NC1CC1`, the GFP fluorescence (kMESF) was 30.6 kMESF (inactive).

Consider `Oc1ccc(CNc2ccccc2)c2cccnc12`, for which the GFP fluorescence (kMESF) was 36.5 kMESF (inactive).

For the compound `CCOC(=O)CSC1=NC(=O)/C(=C/c2ccc(Br)cc2)S1`, the GFP fluorescence (kMESF) was 37 kMESF (inactive).

As for `Cc1ccc(C(CC(=O)O)NC(=O)c2ccc(S(=O)(=O)N3CC(C)OC(C)C3)cc2)cc1` (configuration not stated), the GFP fluorescence (kMESF) was 36.9 kMESF (inactive).

On to `C=CCN1C(=O)/C(=C/c2cccs2)C(=O)NC1=S`, for which the GFP fluorescence (kMESF) is 20.4 kMESF (inactive).

For `CCCCc1ccc(NC(=O)CC(C)=O)cc1`, the GFP fluorescence (kMESF) was 37.2 kMESF (inactive).

Regarding `CC(Oc1ccc2ccccc2c1)C(=O)NNC(=S)NC(=O)c1ccco1` (configuration not stated), the GFP fluorescence (kMESF) was 32.1 kMESF (inactive).

As to `COc1ccc2c(/C=C/c3cc[n+](C)cc3)c[nH]c2c1`, the GFP fluorescence (kMESF) was 44.4 kMESF (inactive).

For the compound `CCc1ccc2c(c1)/C(=C/C(=O)c1cccs1)C(=O)N2`, the GFP fluorescence (kMESF) was 42.4 kMESF (inactive).

Take `O=C1NC(=O)N(CCc2ccc(F)cc2)C(=O)/C1=C/c1cccs1`: the GFP fluorescence (kMESF) is 39.1 kMESF (inactive).

Turning to `O=C1C=C(c2ccc(Cl)cc2)C(=O)N1Nc1ccccc1`, the GFP fluorescence (kMESF) was 24.4 kMESF (inactive).

Turning to `Cn1ncc2c(O/N=C(\N)c3ccc(C(C)(C)C)cc3)ncnc21`, the GFP fluorescence (kMESF) is 24.7 kMESF (inactive).

For the compound `Cc1cc(C)c(C)c(S(=O)(=O)ON2C(=O)c3ccccc3C2=O)c1C`, the GFP fluorescence (kMESF) is 40 kMESF (inactive).

On to `O=C(OCn1ncc(Br)c(Br)c1=O)c1c(F)cccc1F`, for which the GFP fluorescence (kMESF) was 42.7 kMESF (inactive).

`O=S(=O)(CCN(CCS(=O)(=O)C(F)(F)F)CC1CCCO1)C(F)(F)F` (configuration not stated): the GFP fluorescence (kMESF) was 35.8 kMESF (inactive).

As for `CC(=O)n1cc(C(C[N+](=O)[O-])SCCN)c2ccccc21` (configuration not stated), the GFP fluorescence (kMESF) was 28.8 kMESF (inactive).

For the compound `CCOc1ccc(NC2=C(Cl)C(=O)N(Cc3ccccc3)C2=O)cc1`, the GFP fluorescence (kMESF) was 41.3 kMESF (inactive).

In the case of `O=C(/C=C/Sc1ncn[nH]1)c1ccc(Cl)cc1`, the GFP fluorescence (kMESF) is 38 kMESF (inactive).

For the compound `Cc1ccc(C(=O)NNC(=S)NC(=O)COc2ccccc2)cc1`, the GFP fluorescence (kMESF) is 39.8 kMESF (inactive).

Turning to `CC(Oc1cc2oc(=O)c3c(c2cc1Cl)CCC3)C(=O)NCCN1CCOCC1` (configuration not stated), the GFP fluorescence (kMESF) was 34.8 kMESF (inactive).

For `Cc1ccc2[nH]c(C)c(/C=C/c3cc[n+](C)cc3)c2c1`, the GFP fluorescence (kMESF) is 38.4 kMESF (inactive).

Regarding `COc1cc(/C=C2\CC/C(=C\c3cc(OC)c(O)c(OC)c3)C2=O)cc(OC)c1O`, the GFP fluorescence (kMESF) was 34.6 kMESF (inactive).

On to `CN(C)c1ccc(N=Cc2nc(-c3ccccc3)oc2OC(=O)c2cccc(Cl)c2)cc1`, for which the GFP fluorescence (kMESF) was 30.1 kMESF (inactive).

`Cc1cccc(C(=O)NC(=S)NNC(=O)Cc2ccccc2)c1`: the GFP fluorescence (kMESF) is 37.6 kMESF (inactive).

With `O=C(/C=C/c1ccc(Cl)c([N+](=O)[O-])c1)c1cccnc1`, the GFP fluorescence (kMESF) is 35.8 kMESF (inactive).

Consider `CCCCOc1ccc(C(=O)NNC(=S)NC(=O)CC)cc1`, for which the GFP fluorescence (kMESF) is 39.6 kMESF (inactive).

Take `N/C(Cc1ccc(Cl)cc1Cl)=N\OC(=O)c1ccccc1`: the GFP fluorescence (kMESF) is 29.1 kMESF (inactive).

As to `CC(Oc1ccc(Br)cc1)C(=O)Nc1nc(-c2ccccn2)cs1` (configuration not stated), the GFP fluorescence (kMESF) was 46.5 kMESF (inactive).

On to `O=C(Oc1cccc2cccnc12)c1ccc(Br)o1`, for which the GFP fluorescence (kMESF) was 38.2 kMESF (inactive).

As to `Cc1[nH]n(-c2ccccc2)c(=O)c1C(c1ccccc1[N+](=O)[O-])C(C#N)C#N` (configuration not stated), the GFP fluorescence (kMESF) was 36.6 kMESF (inactive).

Turning to `O=C(Nc1ccc(NC(=O)c2cc3ccccc3o2)cc1)c1ccco1`, the GFP fluorescence (kMESF) is 44.8 kMESF (inactive).

On to `CCCCC1OC23CCCCC2C(C#N)(C(=N)O3)C1(C#N)C#N` (configuration not stated), for which the GFP fluorescence (kMESF) was 43.3 kMESF (inactive).

`C[C@@H]1C[C@@H]([C@H](O)CC2CC(=O)NC(=O)C2)C(=O)[C@@H](C)C1`: the GFP fluorescence (kMESF) is 26.8 kMESF (inactive).

Turning to `COc1ccc(Cl)cc1C(Nc1cccnc1)c1ccc2cccnc2c1O` (configuration not stated), the GFP fluorescence (kMESF) was 36.3 kMESF (inactive).

Turning to `CCC(=O)Oc1oc(-c2ccccc2)nc1C=Nc1ccc(C)cc1`, the GFP fluorescence (kMESF) was 41.9 kMESF (inactive).

Consider `O=c1c2cc(Br)ccc2nc(-c2ccc([N+](=O)[O-])cc2)n1O`, for which the GFP fluorescence (kMESF) is 29.6 kMESF (inactive).

As for `O=C(COc1ccccc1)N1CCN(c2ncnc3c2cnn3-c2ccccc2)CC1`, the GFP fluorescence (kMESF) is 35.1 kMESF (inactive).

Take `O=C(Nc1cccc(-c2csc(Nc3ccccc3)n2)c1)c1ccccc1`: the GFP fluorescence (kMESF) is 31 kMESF (inactive).

Turning to `Cc1ccc(NN2C(=O)C=C(c3ccc(Cl)cc3)C2=O)cc1`, the GFP fluorescence (kMESF) is 44.4 kMESF (inactive).

Take `Cc1cccc(Nc2nc(-c3ccccn3)cs2)n1`: the GFP fluorescence (kMESF) is 30.1 kMESF (inactive).

With `COc1ccc(C(=O)/C=C2/C(=O)Nc3ccccc32)cc1OC`, the GFP fluorescence (kMESF) was 43.9 kMESF (inactive).

Values taken from PubChem BioAssay AID2743 (NMMLSC, 2010).
